Measurements reported in EP2133323B1, “The production and use of 3,5-dicaffeoyl-4-malonylquinic acid” (I.R.B. Istituto Di Ricerche Biotecnologiche S.r.l., priority 2008, dated 2009).
Each block holds one compound with its values, some of them ahead of it.

What was measured:
[1] = Antioxidant activity by the DPPH method; assay type: biochemical
Text: The antioxidant activity of the compound 3,5-dicaffeoyl-4-malonylquinic acid compared to known molecules such as ascorbic acid and rutin, has been determined by means of the DPPH method, according to the instructions reported in J. Buenger et al.; International Journal of Cosmetic Science, 2006, 28: 135-146.

[2] = system: DNBS induced colitis model; assay: DNBS induced colitis model in rats (anti-inflammatory activity); assay type: in vivo, Sprague-Dawley rats; conditions: four days after DNBS
Text: Evaluation of the anti- inflammatory activity of 3, 5-dicaffeoyl-4-malonylquinic acid has been determined on an in vivo induced colitis model. Colitis has been induced in rats using a colon inflammation model, stimulated by DNBS ([…] acid). After 4 days of induction of inflammation, the following parameters have been evaluated: determination of colon damage by means of morphological and histological analysis; determination of myeloperoxidase activity and determination of body weight. The animals used have been subdivided into four experimental groups (10 Sprague-Dawley rats weighing 200-250 g in each group) : • one control group, to which only carrier has been administered (CTR); • one group, to which DNBS plus carrier has been administered (DNBS); • one group, to which DNBS and 3,5-dicaffeoyl-4-malonylquinic acid has been administered: the compound has been administered orally at a concentration of 2 mg/kg for 4 consecutive days following the administration of DNBS; • one group, to which DNBS and 3,5-dicaffeoyl-4-malonylquinic acid has been administered: the compound has been administered orally at a concentration of 0.2 mg/kg for 4 consecutive days following the administration of DNBS.
Four days after the administration of DNBS, the following investigations have been conducted: • evaluation of colon damage by means of morphological and histological analysis (a score is assigned on the basis of the damage observed); • evaluation of myeloperoxidase activity and • determination of body weight.

[3] = system: Malassezia furfur DSMZ4167; assay: Multiple dilution antimicrobial assay, CFU count in culture-broth; assay type: cell-based; conditions: for T7d: sample at 7 days, 30°C
Description: (§1) With the aim of identifying any potential antimicrobial activity in the compound 3,5-dicaffeoyl-4-malonylquinic acid, microbiological assays, generally known as multiple dilution assays, have been prepared. The results obtained from said assays have shown the antimicrobial activity of the compound against the following strains: • Staphylococcus aureus ATCC6538 • Malassezia furfur DSMZ4167
(§2) The compound has been tested at concentrations of 5 mg/ml, 2 mg/ml and 1 mg/ml.
(§3) The microbial strains used for testing have been inoculated into culture-broth (in Tryptone soy broth medium, for Malassezia furfur the culture medium has been supplemented with 2 ml/100 ml of olive oil) containing the test compound at the concentrations described above. In parallel with these tests, culture broths containing the microbial strain alone have been prepared (controls). The culture-broths have been incubated at 30°C for a period of 7 days. Samples of the various culture-broths have been taken at 0 and 7 days, with the aim of counting the number of CFU/ml in relation to the various microbial strains, by plating the cultures on solid medium. A certain number of serial dilutions have been prepared for each sample in order to determine the microbial load of each culture-broth. Each dilution has been assayed in triplicate on solid medium. Then number of CFUs reported in the table is the mean of the counts performed on the triplicate assays. Table 4: the effect of 3,5-dicaffeoyl-4-malonylquinic acid on the growth of Staphylococcus aureus ATCC 6538

[4] = system: Staphylococcus aureus ATCC6538; assay: as above; assay type: cell-based
Description: as §1, §2, §3

[5] = UV absorption (sun-screen activity), spectrophotometry 250-400 nm; assay type: physicochemical
Text: This example reports the test to determine the UV absorption of the molecule 3,5-dicaffeoyl-4-malonylquinic acid compared to a commercially available molecule widely used as a sun screen (PARSOL MCX).
The compounds have been examined in an aqueous solution of: • 0.2 M phosphate buffer pH 5.0 • 0.1 M HCl solution at pH 1.0.
The pH 5.0 buffer has been selected as the condition used most frequently in the preparation of sun screens. The pH 1.0 solution has been examined in order to also observe the stability of the compounds at extreme pH values.
The analyses have been conducted using a Shimadzu model UV 1601 spectrophotometer, analysing the spectrum from 250 nm to 400 nm in order to ascertain the absorption of UVA and UVB.
The results report the absorption values at maximum wavelength (λ Max) and at 330 nm, this being the wavelength most frequently used for quantitative measurements for the products in question.
The values are expressed in: • specific extinction, corresponding to the extinction at the given λ for a solution at a concentration of 1.0 µg/mL. • Epsilon = the molar absorption, calculated using the formula Epsilon = A/C*L [formula] where A is the absorption value in mAU, C is the concentration of the solution in moles and L is the path length of the solutions in cm (always 1 cm).

[6] = system: mouse B16F1 melanoma cells; assay: Inhibition of MSH-stimulated melanin production (depigmenting activity); assay type: cell-based; conditions: 1 mg/mL, 100 nM MSH, 24 hours; for % inhibition vs AK: relative to kojic acid
Description: The bleaching activity of the compound obtained by cell culture of Centella asiatica has been determined by evaluating the inhibition of melanin production, stimulated by the addition of MSH (melanocyte stimulating hormone) in mouse B16F1 melanoma cells. The test has been prepared by seeding mouse B16F1 melanoma cells in DMEM culture medium + 10% FBS in 25 cm^2 flasks. On reaching 80% confluency, the culture medium has been replaced with conditioned medium (containing 100 nM MSH and the test compounds). The cells in the conditioned medium have been incubated for 24 hours at 37°C and 5% CO2. On termination of incubation, the cells have been washed twice with PBS and then detached using a Trypsin-EDTA solution. After washing twice with PBS, the detached cells have been resuspended in the same solution. A small aliquot has been removed from the suspension for the purpose of conducting the MTT cell viability test, while the remainder has been used to extract the cell melanin content. The melanin content has been determined by spectrophotometric measurements at 405 nm, and calculated by means of a calibration curve obtained using a melanin standard. The optical density value obtained has been normalised for the number of viable cells obtained by means of the MTT test. The percentage inhibition of melanin production has been calculated from the percentage ratio between the value obtained from the cells treated with the extracts, and the value obtained from the control cells, treated with MSH alone. The results obtained from testing the compound at a concentration of 1 mg/ml compared to kojic acid at the same concentration, are reported in table 8 below: TABLE 8

[7] = system: type-2 HSV virus; assay: Anti-HSV2 antiviral activity in Vero cell model (XTT read-out); assay type: cell-based, type-2 Herpes simplex virus (HSV) strain 333; conditions: at a concentration of 200 µg/ml; compared to positive control (infected, no test substance); MOI 0.1; 72 hours
Description: The antiviral activity of 3,5-dicaffeoyl-4-malonylquinic acid towards type-2 HSV virus has been assayed using a Vero cell model. The assay has been conducted using acyclovir as a comparator.
Vero cells have been seeded into 96 well plates at a concentration of 5x10^4 cells/well. After 4 hours incubation at 37°C in 5% CO2, the cells have been infected with strain 333 of the type-2 Herpes simplex virus (HSV) at a multiplicity of infection (MOI) of 0.1 infective viral particles/cell. Various concentrations of 3,5-dicaffeoyl-4-malonylquinic acid (CA1) have been added in triplicate to the cell monolayers. Some wells have been infected in the absence of test compound (POSITIVE CONTROL), others have not been infected and have not been treated with the test compound (NEGATIVE CONTROL), others still have been treated with various concentrations of acyclovir (ACYC), representing the comparator substance. The infected cells have then been incubated in medium plus 2% FBS for 72 hours. On completion of said incubation period, the medium has been removed from each well by aspiration. Following washing in PBS and aspiration, 50 µl of a solution consisting of […] and 1 mg/ml XTT has been added to each well. […] The optical density has been measured using an ELISA plate reader set at a wavelength of 450 nm and 630 nm.

[8] = system: metalloproteinases (MMP); assay: Metalloproteinase inhibition, 3D model with type-1 collagen gel and BALB 3T3 fibroblasts (hydroxyproline content); assay type: cell-based; conditions: 48 hours; at higher concentrations collagen increases only through reduced cell number
Text: Metalloproteinase inhibitory activity has been evaluated by preparation of an in vitro assay known as the "3D model" envisaging the use of a type-1 collagen gel and BALB 3T3 fibroblast cells. In this assay model, fibroblasts acquire the property of secreting metalloproteinases (MMP), such as collagenase, gelatinase, elastase etc. through modulation by cytokines or other inflammatory mediators (Lim H., Kim HP, Planta Medica, 2007, 12:1267-1274). Balb 3T3 cells (4*10^6 cells/ms) are inoculated in a culture medium (DMEM + 10% FBS) containing a type 1 collagen 3D gel supplemented with increasing concentrations of the test compound. After incubation for 48 hours at 37°C in 5% CO2, the collagen content is measured by means of an indirect method (hydroxyproline content); in parallel, the effect of treatment on cell viability, or on the growth inhibitory effect, is also assessed. The result is expressed as the %age of hydroxyproline present in the 3D gel, compared to the control, or untreated, culture (NB: the collagen content in the absence of cells is reported as positive control). From the results obtained, it is evident that treatment with 3,5 dicaffeoyl-4-malonylquinic acid is effective up to a concentration of 400 µg/ml. For higher concentrations, the collagen content increases purely as a result of the reduced number of cells.

[9] = DNBS + 0.2 mg/kg orally for 4 consecutive days
[10] = DNBS + 2 mg/kg orally for 4 consecutive days
[11] = pH 1.0, second line, printed beside 326 nm (330 nm line empty)
[12] = pH 5.0 (0.2 M phosphate buffer), λ Max line
[13] = pH 5.0, second line, printed beside 325 nm (330 nm line empty)

Structure (SMILES): O=C(O)CC(=O)OC1C(OC(=O)/C=C/c2ccc(O)c(O)c2)CC(O)(C(=O)O)CC1OC(=O)/C=C/c1ccc(O)c(O)c1 (stereo not shown) [3,5-dicaffeoyl-4-malonylquinic acid]
- IC50 [1]: 3760 nM
- Histological score [2, 9]: 1.60
- Myeloperoxidase activity [2, 9]: 513.00 U/g fresh weight
- Histological score [2, 10]: 1.55
- Myeloperoxidase activity [2, 10]: 486.90 U/g fresh weight
- T7d ([3]; 2 mg/ml): <100 CFU/ml
- T7d ([3]; 5mg/ml): <100 CFU/ml
- antimicrobial activity ([3]; at a concentration of 2 mg/ml): exerts antimicrobial activity
- T7d ([4]; 5mg/ml, sample at 7 days, 30°C): <100 CFU/ml
- antimicrobial activity ([4]; at a concentration of 5 mg/ml): exerts antimicrobial activity
- Epsilon ([5]; pH 1.0 (0.1 M HCl), λ Max line): 28.539
- Spec. abs. (1 µg/ml) ([5]; pH 1.0 (0.1 M HCl), λ Max line): 47.9 mAU
- Epsilon [5, 11]: 28.138
- Spec. abs. (1 µg/ml) [5, 11]: 47.2 mAU
- Epsilon [5, 12]: 30.602
- Spec. abs. (1 µg/ml) [5, 12]: 51.3 mAU
- Epsilon [5, 13]: 29.972
- Spec. abs. (1 µg/ml) [5, 13]: 50.3 mAU
- % inhibition ([6]; melanin production): 33.8%
- % inhibition vs AK [6]: 48%
- antiviral activity [7]: good antiviral activity
- concentration up to which treatment is effective (collagen content, hydroxyproline) [8]: ≤ 400 µg/mL

- IC50 [1]: 1000 nM
Structure (SMILES): O=C1O[C@H]([C@@H](O)CO)C(O)=C1O [Ascorbic acid, reference compound]

Structure (SMILES): O=c1cc(CO)occ1O [Kojic acid, reference compound]
- inhibition at 1000 µg/mL ([6]; Mus musculus, B16-F1, melanin production): 70%
- % inhibition vs AK [6]: 100%
